Test results published in patent publication US11186591B2, “Difluoromethyl-aminopyridines and difluoromethyl-aminopyrimidines” (TORQUR AG, priority 2014, dated 2021).

How the values were obtained:
pPKB S473 in A2058 cells = experiment: In-cell Western blot, pPKB S473; type: cell-based; conditions: Homo sapiens, 1 hour treatment, signal normalized to α-tubulin
Experimental: (§1) Cells are fixed with 4% paraformaldehyde for 30 minutes at room temperature, washed 2 times with 1% BSA in PBS, permeabilized with 0.1% Triton X-100 in PBS/1% BSA for 30 minutes at room temperature and blocked with 5% goat serum in PBS/1% BSA/0.1% Triton X-100 for 30 minutes at room temperature. […] Cells are washed 3 times 5 minutes with PBS/1% BSA/0.1% triton and plate scanned with the Odyssey Infrared Scanning system using both 700 and 800 nm channels. […] To correct for background staining in the data analysis wells are treated only with secondary antibodies.
(§2) For data analysis the mean background signal from channel 700 nm and 800 nm are subtracted from each signal in channel 700 nm and 800 nm, respectively.
(§3) IC50 values of each compound are determined by plotting the normalized pPBK S473 and pS6 S235/S236 signals, respectively, versus the compound concentrations (in logarithmic scale) and then by fitting a sigmoidal dose-response curve with variable slope to the data using GraphPad™ Prism.

[1] = tested on: pS6 S235/S236 in A2058 cells; experiment: In-cell Western blot, pS6 S235/S236; type: cell-based; conditions: Homo sapiens, 1 hour treatment, signal normalized to α-tubulin
Experimental: as §1, §2, §3

P110α = P110α (Homo sapiens, UniProt P42336); experiment: P110α IC50 (Table 12, comparative biological activities); type: biochemical
Sequence of P110α (P42336 whole entry, species assumed): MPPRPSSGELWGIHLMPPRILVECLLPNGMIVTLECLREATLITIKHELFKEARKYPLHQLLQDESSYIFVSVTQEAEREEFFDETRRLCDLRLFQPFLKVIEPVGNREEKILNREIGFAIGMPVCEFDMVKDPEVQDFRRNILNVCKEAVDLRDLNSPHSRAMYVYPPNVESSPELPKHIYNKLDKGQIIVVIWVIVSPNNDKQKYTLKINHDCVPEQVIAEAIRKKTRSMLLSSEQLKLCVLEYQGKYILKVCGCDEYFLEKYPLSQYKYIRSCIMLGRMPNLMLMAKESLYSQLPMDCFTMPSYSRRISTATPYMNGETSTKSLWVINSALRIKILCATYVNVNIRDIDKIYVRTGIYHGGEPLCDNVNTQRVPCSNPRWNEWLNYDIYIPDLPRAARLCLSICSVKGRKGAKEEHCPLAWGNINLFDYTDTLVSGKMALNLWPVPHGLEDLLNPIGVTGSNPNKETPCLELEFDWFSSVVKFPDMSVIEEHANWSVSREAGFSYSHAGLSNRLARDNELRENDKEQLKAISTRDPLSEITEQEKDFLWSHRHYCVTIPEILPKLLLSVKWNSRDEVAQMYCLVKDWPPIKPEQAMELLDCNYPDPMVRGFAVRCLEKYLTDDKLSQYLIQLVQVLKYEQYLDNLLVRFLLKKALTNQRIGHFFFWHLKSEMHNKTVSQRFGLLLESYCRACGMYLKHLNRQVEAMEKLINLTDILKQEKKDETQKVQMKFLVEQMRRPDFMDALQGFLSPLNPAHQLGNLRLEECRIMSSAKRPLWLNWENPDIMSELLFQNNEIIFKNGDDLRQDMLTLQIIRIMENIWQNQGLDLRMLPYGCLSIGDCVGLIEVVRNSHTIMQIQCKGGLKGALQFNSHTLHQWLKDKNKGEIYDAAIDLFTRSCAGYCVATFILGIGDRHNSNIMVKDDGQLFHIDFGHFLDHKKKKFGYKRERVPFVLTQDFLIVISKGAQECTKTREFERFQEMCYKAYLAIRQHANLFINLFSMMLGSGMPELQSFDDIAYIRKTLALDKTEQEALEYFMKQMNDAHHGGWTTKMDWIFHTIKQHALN
Sequence of P110α (P27986 whole entry partner, species assumed): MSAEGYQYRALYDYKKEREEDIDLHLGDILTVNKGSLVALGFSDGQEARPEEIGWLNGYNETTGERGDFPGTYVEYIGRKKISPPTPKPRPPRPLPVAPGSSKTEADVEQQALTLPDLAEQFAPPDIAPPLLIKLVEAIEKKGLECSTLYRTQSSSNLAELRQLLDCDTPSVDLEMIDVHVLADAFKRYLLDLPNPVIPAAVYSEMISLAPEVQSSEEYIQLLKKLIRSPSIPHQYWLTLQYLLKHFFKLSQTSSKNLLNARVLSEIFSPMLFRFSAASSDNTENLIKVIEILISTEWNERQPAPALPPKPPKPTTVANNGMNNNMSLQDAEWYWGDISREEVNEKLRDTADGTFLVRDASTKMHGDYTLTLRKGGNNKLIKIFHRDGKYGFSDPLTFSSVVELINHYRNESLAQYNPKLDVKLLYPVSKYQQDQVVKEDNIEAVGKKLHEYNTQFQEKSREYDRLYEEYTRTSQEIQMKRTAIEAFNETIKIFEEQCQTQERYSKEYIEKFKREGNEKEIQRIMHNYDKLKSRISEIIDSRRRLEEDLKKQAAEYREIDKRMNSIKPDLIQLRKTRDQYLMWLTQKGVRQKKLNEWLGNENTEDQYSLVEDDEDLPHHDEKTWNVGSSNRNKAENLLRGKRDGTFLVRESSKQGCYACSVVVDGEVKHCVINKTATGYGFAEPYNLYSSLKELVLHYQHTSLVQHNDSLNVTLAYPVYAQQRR

Compound	IC50 (pPKB S473 in A2058 cells; A2058, 1 h) [nM]	IC50 ([1]; A2058, 1 h) [nM]	IC50 (P110α) [nM]	IC50 (pPKB S473 in A2058 cells) [nM]	IC50 [1] [nM]
Nc1cc(C(F)(F)F)c(-c2nc(N3CCOCC3)nc(N3CCOCC3)n2)cn1	149	340	–	–	–
C[C@H]1COCCN1c1nc(-c2cnc(N)cc2C(F)F)nc(N2CCOC[C@@H]2C)n1	155	215	–	–	–
C[C@H]1COCCN1c1nc(-c2cnc(N)cc2C(F)(F)F)nc(N2CCOC[C@@H]2C)n1	255	433	–	–	–
C[C@H]1COCCN1c1nc(-c2cnc(N)nc2C(F)F)nc(N2CCOC[C@@H]2C)n1	–	97	–	–	–
C[C@H]1COCCN1c1nc(-c2cnc(N)nc2C(F)(F)F)nc(N2CCOC[C@@H]2C)n1	118	224	–	–	–
Nc1ncc(-c2nc(N3CCOCC3)cc(N3CCOCC3)n2)c(C(F)F)n1	–	147	–	–	–
C[C@H]1COCCN1c1cc(-c2cnc(N)nc2C(F)F)nc(N2CCOCC2)n1	77	146	–	–	–
C[C@H]1OC(=O)N(c2nc(-c3cnc(N)nc3C(F)F)nc(N3CCOCC3)n2)[C@H]1CO	100	–	161	–	–
Nc1cc(C(F)F)c(-c2nc(N3CCOCC3)nc(N3CCOCC3=O)n2)cn1 [Example 35, 4-[4-[6-amino-4-(difluoromethyl)-3-pyridyl]-6-morpholino-1,3,5-triazin-2-yl]morpholin-3-one]	207	229	–	–	–
Nc1ncc(-c2nc(N3CCOCC3)nc(N3CCOCC3=O)n2)c(C(F)F)n1 [Example 36, 4-[4-[2-amino-4-(difluoromethyl)pyrimidin-5-yl]-6-morpholino-1,3,5-triazin-2-yl]morpholin-3-one]	99	153	–	–	–
C[C@@H]1COCCN1c1nc(-c2cnc(N)cc2C(F)F)nc(-c2cnc(N)cc2C(F)F)n1 [Example 43, 5-[4-[6-amino-4-(difluoromethyl)-3-pyridyl]-6-[(3R)-3-methylmorpholin-4-yl]-1,3,5-triazin-2-yl]-4-(difluoromethyl)pyridin-2-amine]	–	–	–	383	154
Nc1cc(C(F)(F)F)c(-c2nc(N3CCNCC3)nc(N3CCOCC3)n2)cn1 [reference compound]	302	743	–	–	–
Nc1ncc(-c2nc(N3CCNCC3)nc(N3CCOCC3)n2)c(C(F)(F)F)n1 [reference compound]	116	416	–	–	–
Nc1cc(C(F)(F)F)c(-c2nc(N3CCOCC3)nc(N3CCSCC3)n2)cn1 [reference compound]	311	559	–	–	–
Nc1ncc(-c2nc(N3CCOCC3)nc(N3CCSCC3)n2)c(C(F)(F)F)n1 [reference compound]	343	996	–	–	–
C[C@H]1OC(=O)N(c2nc(-c3cnc(N)nc3C(F)(F)F)nc(N3CCOCC3)n2)[C@H]1CO [reference compound]	689	–	1860	–	–
